# Measured values from patent publication US20220226311A1, “PROCASPASE-3 ACTIVATION AND IMMUNOTHERAPY FOR TREATMENT OF CANCER” (The Board of Trustees of the University of Illinois, priority 2019, published 2022).
# How the values were obtained:
# HT-29 cells = test: Western blot for MLH1 and PARP-1 cleavage after PAC-1 treatment of cell lines; format: cell-based
# Method: FIG. 3. PAC-1 treatment leads to MLH1 cleavage in the absence of Apoptotic Death Markers. Cell lines were incubated with indicated concentrations of PAC-1 for 72 hours, followed by western blot analysis for MLH1 protein level, as well as PARP-1, cleaved PARP-1 (c-PARP-1 is an apoptosis maker), and beta-actin (loading control).
# Results. MSS/MSI status of colon cancer cell lines have been reported (Ahmed, D., et al., Oncogenesis 2013, 2, e71), allowing for selection of HT-29, an MSS colon cancer cell line. To date, studies that have focused on the cleavage of MLH1 have utilized strategies that broadly induce high levels of apoptotic cell death (i.e., with staurosporine). HT-29 cells were treated with sub-lethal PAC-1.
# PMBCs = details: cited from earlier work
# CT-26_WT cells = test: CT-26_WT subcutaneous tumor model; format: in vivo, BALB/c mice; details: sc CT-26_WT; PAC-1 100 mg/kg i.p., anti-PD-1 10 mg/kg, 2 or 4 doses; vs vehicle+anti-IgG
# Method: FIG. 9. Growth of CT-26_WT in BALB/c mice after 2 doses (A) versus 4 doses (B). Open circle=vehicle+anti-IgG2A antibody; square=PAC-1 (100 mg/kg)+anti-IgG2a antibody; triangle=vehicle+anti-PD-1 mAb; inverted triangle=PAC-1 (100 mg/kg)+anti-PD-1 mAb.
# FIG. 10. Analysis of treatment of BALB/c mice with PAC-1 and anti-PDL1 mAb. Open circle=vehicle+anti-IgG2A antibody; square=PAC-1 (100 mg/kg)+anti-IgG2a antibody; triangle=vehicle+anti-PD-1 mAb; inverted triangle=PAC-1 (100 mg/kg)+anti-PD-1 mAb.
# FIG. 8 illustrates the development of a CT-26_WT subcutaneous disease model in BALB/c mice. At day 0, BALB/c mice were injected subcutaneously with 1×10^6 CT-26_WT cells. At various day intervals, selected mice were injected (i.p.) with an empty vehicle, PAC-1 (100 mg/kg), anti-PD-1 antibody (10 mg/kg; 2 doses), anti-PD-1 antibody (10 mg/kg; 4 doses), or a combination of PAC-1 (100 mg/kg) and anti-PD-1 antibody (10 mg/kg;) as shown in Table 1.
# [1] = test system: lung tumor microenvironment; test: Immune cell populations in lungs, PBMC and spleen after tumor challenge; format: in vivo, BALB/c mice
# From the text: FIG. 13. Analysis of neutrophil and macrophage populations after treatment with PAC-1 14 days post-tumor challenge in lungs, PBMC, and spleen. Open circle=vehicle+anti-IgG2A antibody; square=PAC-1+anti-IgG2a antibody; triangle=vehicle+anti-PD-1 mAb; inverted triangle=PAC-1+anti-PD-1 mAb.
# FIG. 14. Analysis of T-cells, B-cells, and NK cell populations in the lungs, PBMC, and spleen of BALB/c mice 26 days post combinatorial PAC-1 and anti-PD-1 treatment. Open circle=vehicle+anti-IgG2A antibody; square=PAC-1+anti-IgG2a antibody; triangle=vehicle+anti-PD-1 mAb; inverted triangle=PAC-1+anti-PD-1 mAb.
# FIG. 15. PD-L1 expression on the surface of dendritic cells and CD45^− tumor cells 26 days post-tumor challenge in lungs, PBMC, and spleen of BALB/c mice. Open circle=vehicle+anti-IgG2A antibody; square=PAC-1+anti-IgG2a antibody; triangle=vehicle+anti-PD-1 mAb; inverted triangle=PAC-1+anti-PD-1 mAb.
# [2] = Tolerability of PAC-1 in the human clinical trial; format: in vivo; details: patients taking PAC-1 for over 10 months (one at 450 mg daily)
# From the text: (§1) It should be noted that cancer drugs can induce secondary cancers, for example, almost ⅓ of patients treated with single-agent vemurafenib develop secondary malignancies; but to date this has not been observed for PAC-1. Just as PAC-1 induces PC-3 cleavage selectively in cancer cells, the resulting caspase-3 activity should lead to selective MLH1 cleavage in cancer cells. It is worth noting that Turcot syndrome, a constitutional mismatch repair deficiency (CMMRD) cancer prone syndrome, is correlated with biallelic germline mutations in MMR genes, resulting in the development of GBM at a young age. Turcot syndrome and other CMMRD syndromes (i.e. Lynch Syndrome) point to the importance of maintaining MMR protein function, implying that inducing MLH1 cleavage/loss in a non-targeted, pan-organism fashion is not a viable therapeutic strategy. However, the strategy with PAC-1 leverages the well-known overexpression of PC-3 in cancer cells (including GBM) resulting in targeted MLH1 cleavage in tumors, leaving MMR proteins in normal cells unperturbed and operating.
# cancer cells [3] = test: DNA damage in cancer cells; format: cell-based
# From the text: (§2) Increased immune cell infiltration in PAC-1 treated GL261 tumors. […] 3) PAC-1 is efficacious in in vivo settings with intact immune systems, including syngeneic mouse (EL4, K7M2, GL261) (FIG. 7) and rat (9L) models, and canine cancer patients.
# plasma cytokines = test: Cytokine array of plasma from mice treated with PAC-1; format: in vivo, BALB/c mice; details: PAC-1 x5 doses, pooled samples from 2-3 mice
# Method: FIG. 12. A) Example treatment protocol. B) Cytokine array of plasma from BALB/c mice treated with PAC-1.
# […] were centrifuged at 8000 g for 10 mins, and plasma/supt was transferred to new tubes. Cytokine array was performed on 4 groups using pooled samples from 2-3 mice:
# Signals were quantified using ImageJ. Data was normalized by calculating the ratio of PAC-1/vehicle mean pixel density as shown in the plot.
# GL261 neurospheres = test: Tumor infiltrating lymphocytes (CD3 staining) in orthotopic GL261 syngeneic model; format: in vivo, C57BL/6 mice; details: single-agent PAC-1 100 mg/kg PO x 10 days
# Method: (§3) FIG. 4. PAC-1 treatment of mice with syngeneic tumors increases the numbers of tumor infiltrating lymphocytes. A) C57BL/6 mice with orthotopic transplant of GL261 neurospheres. Tumors were allowed to establish for 10 days, then mice (n=3/group) were treated with or without PAC-1 (100 mg/kg PO×10 days), then sacrificed. Tumors were stained for CD3 (brown) to identify T cell TILs. Data presented as average CD3^+ per 4 HPF/mouse. Magnification 100×. B) C57BL/6 mice with subcutaneous transplant of B16F10 cells. Tumors were allowed to establish for 7 days, then mice (n=8/group) were treated with or without PAC-1 (100 mg/kg IP×2×14 days), then sacrificed. Tumors were stained for CD3 (brown) to identify T cell TILs. Data presented as average CD3^+ per 10 HPF/mouse. Magnification 100×.
# [4] = Secondary malignancies in pet dogs with cancer treated with PAC-1; format: in vivo; details: pet dogs treated >6 months, >12 months after completion of therapy
# From the text: as §1
# clinical = details: human, in vivo, 450 mg
# cancer cells [5] = test: Transcript profile of cancer cells treated with PAC-1; format: cell-based
# From the text: as §2
# [6] = Myelosuppression in animals and humans, including IND-enabling rat and dog studies; format: in vivo, mice, rats, dogs, or humans; details: also at very high doses in IND-enabling rat and dog studies
# From the text: as §2
# [7] = combination with immune cytokine TRAIL, in culture; cited from earlier work
# B16F10 cells = test: Tumor infiltrating lymphocytes (CD3 staining) in subcutaneous B16F10 syngeneic model; format: in vivo, C57BL/6 mice; details: single-agent PAC-1 100 mg/kg IP x2 x14 days
# Method: as §3
# [8] = single-agent treatment; cited from earlier work
# [9] = HT-29 cells, sub-lethal PAC-1, 72 hours
SMILES,"Selectivity of MLH1 cleavage, cancer cell lines vs normal cell line HFF-1 (HT-29 cells; 72 hours)",PARP-1 cleavage (apoptosis marker) (HT-29 cells; [9]),PC-3 activation and MLH1 cleavage (HT-29 cells; [9]),Toxicity to PBMCs (PMBCs),Tumor growth (CT-26_WT cells),Neutrophils and macrophages in lung tumor microenvironment ([1]; day 14 post-tumor challenge),Macrophages and dendritic cells in tumor microenvironment ([1]; day 26),Ill effects on prolonged dosing [2],DNA damage (cancer cells [3]),Plasma cytokines (ratio PAC-1/vehicle mean pixel density) (plasma cytokines),Number of TILs (CD3+ cells) (GL261 neurospheres),Secondary malignancies [4],Cmax (clinical),Markers associated with resistance to anti-PD-1 therapy (IPRES) (cancer cells [5]),Upregulated genes in transcript profile (cancer cells [5]),Myelosuppression [6],Extrinsic cell death [7],Number of TILs (CD3+ cells) (B16F10 cells),Fraction of patients developing secondary malignancies [8]
C=CCc1cccc(/C=N/NC(=O)CN2CCN(Cc3ccccc3)CC2)c1O [PAC-1],cancer cell specific MLH1 cleavage,little to no PARP-1 cleavage,induced PC-3 activation and MLH1 cleavage,minimal toxicity to PMBCs,large variation in controlling sc CT-26_WT growth,appear to increase,have decreased,no ill effects,causes DNA damage selectively in cancer cells,increase in cytokines that promote macrophage differentiation as well as B-cell and T-cell proliferation,increased the number of TILs,remain free of secondary malignancies,7.8 µM,no upregulation,"upregulation of key genes including TNFα, innate immune system agonists IL-1β and IL-8",has not been observed to induce myelosuppression,can enhance extrinsic cell death in culture,increased the number of TILs,
CCCS(=O)(=O)Nc1ccc(F)c(C(=O)c2c[nH]c3ncc(-c4ccc(Cl)cc4)cc23)c1F [vemurafenib],,,,,,,,,,,,,,,,,,,⅓
